Measured values taken from patent publication US20260256960A1.
Several values for one entry are separate records, joined by “and”; a condition that tells them apart may be missing. Identical values can stand only once. Entries after “also recorded” stand apart in the source; their conditions may differ. Like-named read-outs stand apart in the source and are kept apart here.

What was measured:
HEBSC from 3×Tg-AD mice = test: Hippocampal-entorhinal brain slice culture (HEBSC) from 3×Tg-AD mice, lipid / Aβ / LysoTracker staining; assay type: cell-based, mouse; conditions: for effect on ethanol-induced increase in cytosolic lipid / effect on ethanol-induced increase in intraneuronal Aβ: with ethanol
Experimental: HEBSC was performed using techniques routinely used in the laboratory^2,9,11 Briefly, sections were prepared from either the P7 or adult (6 mo) 3×-Tg-AD hippocampal-entorhinal cortex formation as described by Stoppini et al^16. […] Mice were decapitated, brains extracted and the hippocampal-entorhinal complex dissected in Gey's bugger (Sigma-Aldrich). Slices were cut transversely at 375 μm using a McIlwain tissue chopper and placed on Millicell culture inserts (Millipore, PICMORG50, up to 13 slices per insert). Slices acclimated in culture media (MEM plus 24 mM HEPES and Hank's salts, 25% horse serum, 5.5 g/L glucose, 2 mM L-glutamine) in a humified 5% CO2 incubator for seven days, followed by 12% horse serum for four days, and 6% horse serum until the completion of the experiments.

CX3CR1Cre^ERT.hM4di mice = test: Microglial Gi DREADD inhibition in CX3CR1Cre^ERT.hM4di mice given ethanol +/- CNO; assay type: in vivo, mouse; conditions: ten days of ethanol +/- CNO
Experimental: For in vivo studies, heterozygous CX3CR1.Cre^ERT.hM4di were treated with tamoxifen (75 mg/kg/d, i.p.) for 5 days during adulthood (12 weeks of age).

3×Tg-AD mice [1] = system: 3×Tg-AD mice
Experimental: (§1) Western blot was performed as reported previously^9,10. Brain tissue from the cerebral cortex was homogenized in lysis buffer (Tris-HCl, pH 7.5, Sucrose, EDTA, EGTA, 1% Triton X-100, protease, and phosphatase inhibitors). […] of protein were loaded into each lane on SDS polyacrylamide gels and were transferred to PVDF membranes. Membranes were washed in TBS and blocked for 1 hour at room temperature (Li-Cor Blocking Solution; 92760001) then were incubated overnight at 4° Celsius with primary antibodies (Table 1). Membranes were washed in TBS with 0.1% Tween-20 (Sigma-Aldrich, St. Louis, MO) then were incubated in the appropriate conjugated secondary antibody (Rockland H & L Pre-absorbed). Membranes were washed again in TBS and visualized using LiCor Image Studio Lite Ver 5.2. Western Blots were analyzed using Image Studio Lite software and each protein of interest was normalized to housekeeping protein GAPDH. […] The protein of interest was normalized to GAPDH for each sample and the percentage change relative to controls was calculated for each blot.

WT mice [2] = conditions: WT cortex, 10-mo mice, ethanol 5 weeks
Experimental: as §1

3×Tg-AD mice [3] = system: 3×Tg-AD mice; remark: listed apart in the source
Source text: mRNA was extracted from frozen cortex or hippocampus as reported^10. Briefly, samples were homogenized with Trizol (Invitrogen) and RNA was isolated by chloroform extraction, followed by reverse transcription as described previously 11. SYBR green PCR master mix (Applied Biosystems, Foster City, CA) was used for qRT-PCR analysis. Primer sequences were designed using the National Library of Medicine Primer-BLAST tool or were obtained from PrimerBank database (Table 1) 12-14. Only primers with no predicted non-specific targets and single peak melt curves were used. Genes of interest were normalized to the expression of the reference gene 18S using the cycle threshold (Ct) value of each target gene product. The ΔΔCt method was used to compare relative differences between control and treatment groups, and the ratio by 18S or the percent change relative to 18S were used in analysis.

WT mice [4] = system: WT mice
3×Tg-AD mice [5] = system: 3×Tg-AD mice; remark: listed apart in the source
[6] = 5 g/kg/d i.g., 20% ethanol w/v, at 1 hour; cited from earlier work
[7] = 3×Tg-AD cortex, listed as ethanol
[8] = HEBSC from adult 3×Tg-AD mice, ENT region

## C[N+]1([O-])CCN(C2=Nc3cc(Cl)ccc3Nc3ccccc32)CC1 [CNO]
HEBSC from 3×Tg-AD mice; HEBSC from 3×Tg-AD mice
  effect on ethanol-induced increase in cytosolic lipid: prevented
CX3CR1Cre^ERT.hM4di mice
  effect on ethanol-induced proinflammatory activation of microglia in ENT (IF): prevented
CX3CR1Cre^ERT.hM4di mice; ENT
  effect on ethanol-induced increases in total and neuronal lipid: prevented

## CCO [Ethanol, ethanol]
3×Tg-AD mice [1]; 3×Tg-AD
  increase of active p-Tyr216 GSK3β: 17%
  reduction of inactive pSer9 GSK3β: 15.6%
3×Tg-AD mice [1]; 3×Tg-AD cortex
  effect on BACE1 levels: no effect
  effect on PSEN1 levels: no effect
  increase in LAMP1 protein: 26%
  increase in LC3 (LC3-II) protein: 20%
  increase in P62 protein: 20%
  increase in p-mTOR: ~ 2 fold
  reduction in Beclin-1 protein: 14%
  reduction in LAL protein: 19%
  reduction in TFEB protein: 20%
3×Tg-AD mice [1]; [7]
  increase in p-mTOR: 2 fold
  reduction in Beclin-1 protein: 20%
WT mice [2]
  increase in LAMP1, females: ~ 33%
  reduction in Beclin-1 protein, females (trend, p=0.08): 13%
  reduction in Beclin-1 protein, males: 12%
  reduction in LC3A/B: 12%
WT mice [2]; not altered in males
  increase in P62 protein, females: 33%
3×Tg-AD mice [3]; 3×Tg-AD
  LAL (LIPA) gene expression: reduced
  effect on hMAPT expression, cortex or hippocampus: No effect
3×Tg-AD mice [3]; 3×Tg-AD cortex
  effect on expression of human APP (hAPP) transgene, cortex: no effect
3×Tg-AD mice [3]; 3×Tg-AD males, no change in females
  increase in hAPP expression, male hippocampus: 38%
WT mice [4]; 5 weeks ethanol
  increase in total Aβ in ENT: 36%
WT mice [4]; chronic ethanol
  increase in lipid levels in ENT: 83%
  increase in lysosomal lipid in ENT: ~ 2 fold
WT mice [4]; chronic ethanol, listed as ethanol
  increase in lysosomal lipid in ENT: 2.5 fold
HEBSC from 3×Tg-AD mice; HEBSC, ethanol
  increase in Aβ: 2 fold
  increase in cytosolic lipid: 2 fold
HEBSC from 3×Tg-AD mice; ethanol 100 mM, 4 days
  reduction of lysosomal acidification (LysoTracker red): 50%
3×Tg-AD mice [5]; 3×Tg-AD
  increase in TUNEL+ neurodegeneration in ENT: 2.5 fold and 3 fold
  increase in cytosolic lipid (LipidSpot), ENT: 88%
  increase in cytosolic lipid (LipidSpot), FCX: 38%
  increase in extra-lysosomal cytoplasmic Aβ, ENT: 1.9 fold
  increase in extra-lysosomal cytoplasmic Aβ, FCX: 1.8 fold
  increase in intraneuronal Aβ (IF), ENT: 59%
  increase in intraneuronal Aβ (IF), FCX: 52%
  increase in lipid within Aβ+ neurons, ENT: 2.2 fold
  increase in lipid within Aβ+ neurons, FCX: 75%
  increase in lysosomal lipid in Aβ+ neurons, ENT: 3.3 fold
  increase in lysosomal lipid in Aβ+ neurons, FCX: ~ 75% and 75%
  increase in lysosomes in Aβ+ neurons, FCX and ENT: 2 fold
  increase in p-tau181 in FCX: 40%
  increase in p-tau-181 in CA1 and FCX: 40%
  reduction in total LAL in ENT and SUB: ~50%
3×Tg-AD mice [5]; 3×Tg-AD females
  increase in Aβ plaques, female subiculum, dorsal: 91%
  increase in Aβ plaques, female subiculum, ventral: 127%
  increase in amyloid plaques in SUB: 2 fold
3×Tg-AD mice [5]; 3×Tg-AD, both sexes
  Aβ1-42 in FCX: increased
  increase in pathogenic intraneuronal Aβ1-42 in ENT, FCX and SUB: 55-60%
3×Tg-AD mice [5]; 3×Tg-AD, chronic ethanol
  increase in microglial (Iba-1+) lipid: 2 fold and ~ 2 fold
3×Tg-AD mice [5]; 3×Tg-AD, ethanol-treated females
  increase in LAMP1+ lysosomes in Aβ-containing neurons, FCX: ~ 2 fold
3×Tg-AD mice [5]; 3×Tg-AD, midlife ethanol vs control
  increase in intraneuronal Aβ1-42 in ENT: 57%
3×Tg-AD mice [5]; 3×Tg-AD, listed as EtOH
  increase in cytosolic lipid (LipidSpot), ENT: 80%
3×Tg-AD mice [5]; 3×Tg-AD, stated for ethanol and obesity together
  reduction of Aβ lysosomal:extra-lysosomal cytoplasmic (lyso:cyto) ratio, FCX and ENT: ~ 20%
[6]
  peak blood alcohol concentration: ~ 290 mg/dL and ~ 280 mg/dL

## O=C(Oc1nsnc1N1CCCCC1)N1CCCCC1 [LAListat]
HEBSC from 3×Tg-AD mice; [8]
  effect on cytosolic lipid levels: concentration-dependent increase; also recorded: dose-dependent increase
  effect on intraneuronal Aβ in ENT: concentration-dependent increase; also recorded: dose-dependent increase

## O=c1c(-c2ccc(O)cc2)coc2cc(O)cc(O)c12 [genistein]
HEBSC from 3×Tg-AD mice; HEBSC from 3×Tg-AD mice
  effect on ethanol-induced increase in cytosolic lipid: did not abolish; also recorded: did not reduce; also recorded: no effect

B1: rLAL: recombinant lysosomal acid lipase / sebelipase (protein, UniProt P38571 77-399, looked up)
Lysosomal acid …: GPKPVVFLQHGLLADSSNWVTNLANSSLGFILADAGFDVWMGNSRGNTWSRKHKTLSVSQDEFWAFSYDEMAKYDLPASINFILNKTGQEQVYYVGHSQGTTIGFIAFSQIPELAKRIKMFFALGPVASVAFCTSPMAKLGRLPDHLIKDLFGDKEFLPQSAFLKWLGTHVCTHVILKELCGNLCFLLCGFNERNLNMSRVDVYTTHSPAGTSVQNMLHWSQAVKFQKFQAFDWGSSAKNYFHYNQSYPPTYNVKDMLVPTAVWSGGHDWLADVYDVNILLTQITNLVFHESIPEWEHLDFIWGLDAPWRLYNKIINLMRKYQ
HEBSC from 3×Tg-AD mice; HEBSC from 3×Tg-AD mice
  reduction of baseline Aβ levels: 50%
  effect on ethanol-induced increase in cytosolic lipid: blocked
  effect on ethanol-induced increase in intraneuronal Aβ: abolished
HEBSC from 3×Tg-AD mice; HEBSC from 3×Tg-AD mice, listed as Recombinant LAL
  effect on ethanol-induced increase in intraneuronal Aβ: blocked
